Measurements from ChEMBL document CHEMBL1201862, “PubChem BioAssay data set” (2004).
Calls of active or inactive are those of the source.

Tests used:
Aminopeptidase N = target: T1, Aminopeptidase N (Plasmodium falciparum FcB1/Columbia, UniProt O96935); assay: malaria alanyl aminopeptidase activity blockers – biochemical, fluorogenic H-Leu-NHMec substrate, 1536-well (AID 1445); set-up: species or system Plasmodium falciparum 3D7, 3D7
T1 sequence (O96935 whole entry): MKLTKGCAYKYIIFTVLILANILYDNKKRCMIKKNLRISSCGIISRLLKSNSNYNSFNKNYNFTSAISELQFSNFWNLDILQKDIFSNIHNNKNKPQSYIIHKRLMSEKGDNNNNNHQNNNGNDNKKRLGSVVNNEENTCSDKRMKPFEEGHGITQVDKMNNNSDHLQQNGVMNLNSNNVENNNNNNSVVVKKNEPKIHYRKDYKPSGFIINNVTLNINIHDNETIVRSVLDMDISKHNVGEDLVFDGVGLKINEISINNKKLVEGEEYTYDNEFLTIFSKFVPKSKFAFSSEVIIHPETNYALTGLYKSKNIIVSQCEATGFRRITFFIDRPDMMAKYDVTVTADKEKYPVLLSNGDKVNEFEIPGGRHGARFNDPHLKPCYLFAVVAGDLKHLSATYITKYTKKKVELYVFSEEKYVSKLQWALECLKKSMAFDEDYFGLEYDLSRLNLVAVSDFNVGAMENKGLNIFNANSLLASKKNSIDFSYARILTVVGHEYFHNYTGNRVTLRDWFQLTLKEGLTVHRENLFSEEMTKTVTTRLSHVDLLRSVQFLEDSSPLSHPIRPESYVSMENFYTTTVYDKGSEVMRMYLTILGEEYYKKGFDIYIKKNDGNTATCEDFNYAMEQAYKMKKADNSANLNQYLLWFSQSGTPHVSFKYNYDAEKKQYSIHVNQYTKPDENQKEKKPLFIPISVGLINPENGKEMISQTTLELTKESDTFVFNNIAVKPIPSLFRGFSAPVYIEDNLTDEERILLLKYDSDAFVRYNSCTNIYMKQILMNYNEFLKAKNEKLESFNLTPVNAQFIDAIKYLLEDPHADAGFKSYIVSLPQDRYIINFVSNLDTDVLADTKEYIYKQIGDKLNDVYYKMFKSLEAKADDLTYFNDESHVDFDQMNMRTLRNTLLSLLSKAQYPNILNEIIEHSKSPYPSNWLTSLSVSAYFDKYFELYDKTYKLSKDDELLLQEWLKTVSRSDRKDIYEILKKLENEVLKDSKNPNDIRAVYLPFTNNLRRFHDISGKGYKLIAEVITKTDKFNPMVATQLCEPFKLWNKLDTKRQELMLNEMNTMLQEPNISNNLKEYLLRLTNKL

Genome polyprotein = Genome polyprotein (dengue virus type 2, UniProt P29990); assay: flavivirus cap methylation enzyme inhibition – biochemical, confirmation dose response, primary screen (AID 588689); type: functional
[1] = target: Induced myeloid leukemia cell differentiation protein Mcl-1 (Homo sapiens, UniProt Q07820); type: functional
Keap1/Nrf2 = Keap1/Nrf2 (Homo sapiens, UniProt Q14145); assay: disruptors of Keap1 binding to Nrf2 peptide – biochemical, fluorescence polarization, cherry-picked samples, dose response (AID 588683)
Sequence of Keap1/Nrf2 (Q16236 whole entry): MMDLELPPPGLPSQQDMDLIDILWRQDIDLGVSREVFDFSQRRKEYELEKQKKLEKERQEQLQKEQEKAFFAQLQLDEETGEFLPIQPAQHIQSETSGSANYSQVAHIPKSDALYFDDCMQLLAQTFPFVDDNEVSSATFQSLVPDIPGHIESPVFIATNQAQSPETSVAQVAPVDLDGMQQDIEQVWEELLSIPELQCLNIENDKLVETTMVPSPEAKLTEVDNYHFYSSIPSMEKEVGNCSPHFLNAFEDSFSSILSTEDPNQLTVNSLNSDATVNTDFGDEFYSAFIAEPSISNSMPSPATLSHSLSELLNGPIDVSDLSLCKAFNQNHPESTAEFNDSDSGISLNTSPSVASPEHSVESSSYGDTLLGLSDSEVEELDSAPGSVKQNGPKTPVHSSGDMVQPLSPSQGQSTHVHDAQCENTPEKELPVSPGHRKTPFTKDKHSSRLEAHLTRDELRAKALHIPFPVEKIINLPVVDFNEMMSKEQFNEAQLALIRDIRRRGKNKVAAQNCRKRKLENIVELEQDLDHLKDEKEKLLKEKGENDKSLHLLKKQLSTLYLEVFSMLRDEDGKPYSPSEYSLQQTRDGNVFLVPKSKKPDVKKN
Sequence of Keap1/Nrf2 (Q14145 whole entry): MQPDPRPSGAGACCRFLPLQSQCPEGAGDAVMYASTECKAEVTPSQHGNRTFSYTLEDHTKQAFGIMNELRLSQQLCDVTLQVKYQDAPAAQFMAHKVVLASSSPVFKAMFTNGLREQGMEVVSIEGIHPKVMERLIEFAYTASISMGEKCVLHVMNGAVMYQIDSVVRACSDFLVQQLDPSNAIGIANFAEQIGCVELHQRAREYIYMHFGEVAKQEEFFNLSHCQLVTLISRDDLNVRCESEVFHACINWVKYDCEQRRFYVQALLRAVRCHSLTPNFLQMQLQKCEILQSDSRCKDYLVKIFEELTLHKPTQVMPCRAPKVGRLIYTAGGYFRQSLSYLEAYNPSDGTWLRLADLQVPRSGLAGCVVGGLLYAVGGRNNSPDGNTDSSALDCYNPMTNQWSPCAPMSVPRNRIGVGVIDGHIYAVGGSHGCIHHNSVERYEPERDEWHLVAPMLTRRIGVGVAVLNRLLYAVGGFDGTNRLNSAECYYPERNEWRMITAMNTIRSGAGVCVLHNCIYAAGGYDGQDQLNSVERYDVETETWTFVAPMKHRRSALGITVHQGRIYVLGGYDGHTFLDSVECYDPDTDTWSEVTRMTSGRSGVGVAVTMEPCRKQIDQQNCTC

[2] = target: Lysine-specific demethylase 4C (Homo sapiens, UniProt Q9H3R0); assay: inhibition of JMJD2C H3K9me3 demethylation – biochemical, DELFIA europium, cherry-picked samples, dose response (AID 488835); type: functional
Sequence of Lysine-specific demethylase 4C (Q9H3R0 whole entry): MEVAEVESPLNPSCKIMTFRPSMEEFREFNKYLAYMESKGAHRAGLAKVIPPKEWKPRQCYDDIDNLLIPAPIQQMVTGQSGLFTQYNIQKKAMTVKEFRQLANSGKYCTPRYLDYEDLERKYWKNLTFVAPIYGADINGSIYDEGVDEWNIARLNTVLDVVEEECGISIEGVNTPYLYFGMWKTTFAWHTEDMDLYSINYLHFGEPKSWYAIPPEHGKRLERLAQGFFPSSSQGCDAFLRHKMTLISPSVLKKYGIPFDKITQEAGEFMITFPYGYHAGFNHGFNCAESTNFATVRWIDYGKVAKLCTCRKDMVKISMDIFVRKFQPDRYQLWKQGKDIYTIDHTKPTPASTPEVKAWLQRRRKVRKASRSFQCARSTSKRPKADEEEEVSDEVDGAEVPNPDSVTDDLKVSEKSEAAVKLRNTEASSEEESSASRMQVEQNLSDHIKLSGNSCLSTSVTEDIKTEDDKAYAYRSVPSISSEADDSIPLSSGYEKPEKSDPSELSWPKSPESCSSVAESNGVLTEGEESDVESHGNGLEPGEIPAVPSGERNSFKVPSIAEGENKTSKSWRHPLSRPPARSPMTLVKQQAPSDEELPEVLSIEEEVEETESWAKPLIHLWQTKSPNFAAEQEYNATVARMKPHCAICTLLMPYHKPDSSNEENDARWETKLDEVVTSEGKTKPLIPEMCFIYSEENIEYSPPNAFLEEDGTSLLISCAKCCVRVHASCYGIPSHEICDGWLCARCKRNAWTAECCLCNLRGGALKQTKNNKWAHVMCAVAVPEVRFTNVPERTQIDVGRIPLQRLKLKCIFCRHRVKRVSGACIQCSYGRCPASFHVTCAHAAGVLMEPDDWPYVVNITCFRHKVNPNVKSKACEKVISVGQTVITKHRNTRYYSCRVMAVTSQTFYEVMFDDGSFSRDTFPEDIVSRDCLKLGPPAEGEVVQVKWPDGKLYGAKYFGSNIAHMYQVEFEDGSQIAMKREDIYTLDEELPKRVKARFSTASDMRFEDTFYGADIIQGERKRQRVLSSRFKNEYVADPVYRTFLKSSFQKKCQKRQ

[3] = target: Intestinal-type alkaline phosphatase (Mus musculus, UniProt P24822); assay: mouse intestinal alkaline phosphatase activators, dose response, biochemical, luminescence, uHTS hits (AID 488783); type: functional
Sequence of Intestinal-type alkaline phosphatase (Mus musculus, UniProt P24822) (P24822 whole entry): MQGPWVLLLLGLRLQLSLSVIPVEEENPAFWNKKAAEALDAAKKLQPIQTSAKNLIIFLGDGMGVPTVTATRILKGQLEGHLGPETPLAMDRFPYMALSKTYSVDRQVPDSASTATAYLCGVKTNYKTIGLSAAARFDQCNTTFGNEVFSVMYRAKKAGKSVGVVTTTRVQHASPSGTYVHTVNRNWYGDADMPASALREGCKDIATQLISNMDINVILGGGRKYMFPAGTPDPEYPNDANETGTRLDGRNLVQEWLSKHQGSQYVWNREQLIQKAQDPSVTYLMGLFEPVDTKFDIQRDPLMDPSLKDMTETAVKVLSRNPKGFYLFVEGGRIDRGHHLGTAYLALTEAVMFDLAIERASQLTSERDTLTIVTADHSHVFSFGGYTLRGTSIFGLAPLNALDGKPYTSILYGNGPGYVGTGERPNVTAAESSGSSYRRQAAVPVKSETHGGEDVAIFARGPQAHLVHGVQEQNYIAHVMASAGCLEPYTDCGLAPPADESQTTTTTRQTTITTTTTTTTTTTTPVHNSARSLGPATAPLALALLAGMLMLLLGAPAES

[4] = target: T2, Alkaline phosphatase, tissue-nonspecific isozyme (Homo sapiens, UniProt P05186); assay: activation of tissue-nonspecific alkaline phosphatase – biochemical, TNAP isozyme, mouse IAP uHTS hits, selectivity assay for mouse IAP activator project, dose response (AID 488880); type: functional
T2 sequence (P05186 whole entry): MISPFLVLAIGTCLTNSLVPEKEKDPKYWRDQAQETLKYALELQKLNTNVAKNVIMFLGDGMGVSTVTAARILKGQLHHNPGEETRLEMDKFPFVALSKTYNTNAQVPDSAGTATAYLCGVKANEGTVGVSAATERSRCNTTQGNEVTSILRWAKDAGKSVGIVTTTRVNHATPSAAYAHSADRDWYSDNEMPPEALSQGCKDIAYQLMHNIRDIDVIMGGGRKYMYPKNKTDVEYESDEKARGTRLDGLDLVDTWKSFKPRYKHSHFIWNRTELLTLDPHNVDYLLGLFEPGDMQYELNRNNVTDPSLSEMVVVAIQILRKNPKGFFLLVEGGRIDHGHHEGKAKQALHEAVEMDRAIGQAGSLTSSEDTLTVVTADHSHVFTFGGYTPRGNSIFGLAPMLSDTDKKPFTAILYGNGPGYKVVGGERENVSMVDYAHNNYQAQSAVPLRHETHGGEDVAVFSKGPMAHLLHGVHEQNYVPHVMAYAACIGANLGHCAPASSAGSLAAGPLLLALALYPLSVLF

[5] = target: T3, RNA-binding protein pos-1 (Caenorhabditis elegans, UniProt G5EF15); assay: disruptors of C. elegans POS-1 RNA interaction – biochemical, fluorescence polarization, dose response (AID 1964);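 note: purified POS-1 fused to maltose binding protein made in E. coli; potency of compounds blocking POS-1 binding to fluorescent RNA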
T3 sequence (G5EF15 whole entry): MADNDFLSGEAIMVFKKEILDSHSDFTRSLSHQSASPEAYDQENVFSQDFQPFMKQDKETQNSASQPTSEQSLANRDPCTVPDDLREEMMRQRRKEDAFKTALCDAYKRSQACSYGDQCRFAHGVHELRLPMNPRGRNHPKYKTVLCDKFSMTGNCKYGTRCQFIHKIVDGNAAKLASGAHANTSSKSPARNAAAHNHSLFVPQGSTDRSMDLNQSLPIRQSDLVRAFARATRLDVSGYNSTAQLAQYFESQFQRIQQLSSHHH

[6] = target: T4, Zinc finger protein mex-5 (Caenorhabditis elegans, UniProt Q9XUB2); assay: potency of MEX-5 RNA-binding blockers – biochemical, C. elegans, fluorescence polarization, dose response (AID 1960)
T4 sequence (Q9XUB2 whole entry): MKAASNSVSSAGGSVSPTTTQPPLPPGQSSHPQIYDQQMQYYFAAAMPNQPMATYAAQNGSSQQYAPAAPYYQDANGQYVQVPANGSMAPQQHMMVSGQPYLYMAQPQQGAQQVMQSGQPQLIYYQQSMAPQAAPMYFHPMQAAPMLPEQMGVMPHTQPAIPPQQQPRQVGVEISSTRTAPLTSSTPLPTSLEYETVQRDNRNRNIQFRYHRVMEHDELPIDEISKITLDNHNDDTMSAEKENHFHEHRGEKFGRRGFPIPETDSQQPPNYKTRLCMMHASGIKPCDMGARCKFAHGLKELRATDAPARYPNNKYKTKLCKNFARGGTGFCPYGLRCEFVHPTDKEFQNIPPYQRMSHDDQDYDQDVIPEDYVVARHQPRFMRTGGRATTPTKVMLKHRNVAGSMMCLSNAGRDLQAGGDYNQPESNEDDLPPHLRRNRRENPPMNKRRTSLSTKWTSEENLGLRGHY

[7] = target: Intestinal-type alkaline phosphatase (Homo sapiens, UniProt P09923); assay: activation of human intestinal alkaline phosphatase – biochemical, dose response (AID 488873); type: functional
Sequence of Intestinal-type alkaline phosphatase (Homo sapiens, UniProt P09923) (P09923 whole entry, the tested form may be a part): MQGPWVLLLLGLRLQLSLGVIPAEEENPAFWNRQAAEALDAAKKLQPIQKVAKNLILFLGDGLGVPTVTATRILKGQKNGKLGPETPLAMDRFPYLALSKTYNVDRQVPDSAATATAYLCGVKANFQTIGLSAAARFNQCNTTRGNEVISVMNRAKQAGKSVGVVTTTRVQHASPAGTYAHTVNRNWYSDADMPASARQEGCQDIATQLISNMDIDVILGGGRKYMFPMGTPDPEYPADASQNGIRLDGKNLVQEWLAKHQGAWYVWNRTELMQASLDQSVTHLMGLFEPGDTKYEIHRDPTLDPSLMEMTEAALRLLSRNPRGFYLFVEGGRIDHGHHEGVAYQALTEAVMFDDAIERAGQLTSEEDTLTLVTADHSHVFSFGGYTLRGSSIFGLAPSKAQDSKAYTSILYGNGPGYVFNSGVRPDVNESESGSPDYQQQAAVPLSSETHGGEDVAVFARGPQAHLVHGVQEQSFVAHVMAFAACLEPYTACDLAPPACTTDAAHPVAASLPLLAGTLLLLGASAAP

[8] = target: Nucleotide-binding oligomerization domain-containing protein 1 (Homo sapiens, UniProt Q9Y239); assay: blockers of NOD1 pathway activity – revised, SAR follow-up (AID 2333); type: functional
Sequence of Nucleotide-binding oligomerization domain-containing protein 1 (Q9Y239 whole entry, the tested form may be a part): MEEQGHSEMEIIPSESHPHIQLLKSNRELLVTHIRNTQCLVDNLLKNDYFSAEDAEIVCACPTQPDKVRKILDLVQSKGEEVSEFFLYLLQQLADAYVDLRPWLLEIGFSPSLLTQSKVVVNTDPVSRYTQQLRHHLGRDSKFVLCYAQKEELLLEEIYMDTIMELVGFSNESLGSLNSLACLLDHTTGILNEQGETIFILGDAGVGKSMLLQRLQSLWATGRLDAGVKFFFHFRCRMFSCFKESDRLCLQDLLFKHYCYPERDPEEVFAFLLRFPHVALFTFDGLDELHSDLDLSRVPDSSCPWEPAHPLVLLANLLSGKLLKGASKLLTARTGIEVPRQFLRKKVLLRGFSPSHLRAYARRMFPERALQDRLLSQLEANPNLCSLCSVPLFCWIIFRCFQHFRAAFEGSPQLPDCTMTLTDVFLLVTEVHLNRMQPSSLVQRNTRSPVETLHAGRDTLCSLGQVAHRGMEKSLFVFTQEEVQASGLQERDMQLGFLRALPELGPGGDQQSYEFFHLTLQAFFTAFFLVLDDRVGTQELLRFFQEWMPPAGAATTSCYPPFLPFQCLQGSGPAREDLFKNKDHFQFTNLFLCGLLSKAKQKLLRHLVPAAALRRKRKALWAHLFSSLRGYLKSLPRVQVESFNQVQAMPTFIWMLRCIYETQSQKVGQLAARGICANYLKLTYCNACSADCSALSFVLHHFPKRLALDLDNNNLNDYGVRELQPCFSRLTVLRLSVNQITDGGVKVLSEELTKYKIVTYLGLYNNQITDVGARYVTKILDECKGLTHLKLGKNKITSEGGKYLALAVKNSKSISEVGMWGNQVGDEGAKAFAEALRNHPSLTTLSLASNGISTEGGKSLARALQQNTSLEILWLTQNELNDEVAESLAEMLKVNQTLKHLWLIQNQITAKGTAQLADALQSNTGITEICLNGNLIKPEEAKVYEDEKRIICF

HEK293 [9] = assay: cells; type: functional, cell-based; conditions: Homo sapiens
HEK293 [10] = assay: cells; type: functional, cell-based; conditions: Homo sapiens; remark: listed apart in the source
HEK293 [11] = assay: NOD2 signaling inhibitors in MDP-stimulated cells, cell-based, uHTS, luminescence (AID 2001); type: functional; conditions: Homo sapiens
[12] = reduction of Shn3 3'UTR-driven luciferase in osteoblasts – cell-based, Clone20 osteoblasts, firefly luciferase, cherry-picked, dose response (AID 624132); type: functional;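 note: firefly luciferase luminescence from reporter carrying the Shn3 3'UTR in osteoblasts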
HEK293 [13] = assay: cells; conditions: Homo sapiens
[14] = loss of viability in HepG2 cells – cell-based, CellTiter-Glo, cherry-picked, cytotoxicity control for Shn3 inhibitor project, dose response (AID 624134); type: functional
[15] = target: Nucleotide-binding oligomerization domain-containing protein 2 (Homo sapiens, UniProt Q9HC29); assay: inhibition of NOD2-driven NF-kB reporter – cell-based, luminescence, uHTS, HEK293 (AID 1566); type: functional
Tumor necrosis factor = Tumor necrosis factor (Homo sapiens, UniProt P01375); assay: analog potency on TNFa NF-kB signaling – cell-based, revised, SAR follow-up (AID 2337); type: functional
[16] = non-specific 3'UTR reporter inhibition in Clone20-Shn3RL – cell-based, Renilla luciferase, cherry-picked, counter-screen for Shn3 inhibitor project, dose response (AID 624133); type: functional
HEK293 [17] = assay: inhibition of NOD1-driven NF-kB reporter – cell-based, luminescence, uHTS, primary screen (AID 1578); type: functional; conditions: Homo sapiens
HEK293 [18] = assay: cells; type: functional, cell-based; conditions: Homo sapiens; remark: listed apart in the source
Paired box protein Pax-8 = Paired box protein Pax-8 (Homo sapiens, UniProt Q06710); assay: PAX8 transcriptional activity inhibition in RMG-I – RMG-I cells, luciferase, cherry-pick, dose response (AID 687027); type: functional, cell-based;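 note: luciferase reporter driven by Pax8 target thyroperoxidase promoter measured by SteadyGlo luminescence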
Sequence of Paired box protein Pax-8 (Q06710 whole entry): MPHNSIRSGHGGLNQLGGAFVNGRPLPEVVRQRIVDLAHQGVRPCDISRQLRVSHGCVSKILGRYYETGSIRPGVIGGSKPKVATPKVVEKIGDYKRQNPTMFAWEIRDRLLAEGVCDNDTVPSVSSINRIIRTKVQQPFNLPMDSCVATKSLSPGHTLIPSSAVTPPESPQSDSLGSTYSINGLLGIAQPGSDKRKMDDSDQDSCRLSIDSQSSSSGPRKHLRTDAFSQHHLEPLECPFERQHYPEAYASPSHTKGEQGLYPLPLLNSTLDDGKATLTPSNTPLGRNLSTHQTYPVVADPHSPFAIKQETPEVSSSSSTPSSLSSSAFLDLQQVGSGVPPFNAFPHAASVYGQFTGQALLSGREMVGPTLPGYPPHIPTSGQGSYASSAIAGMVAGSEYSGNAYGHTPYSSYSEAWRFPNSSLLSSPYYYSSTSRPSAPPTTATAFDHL

Phosphomannomutase 2 = Phosphomannomutase 2 (Homo sapiens, UniProt O15305); assay: Counter screen SAR assay for PMM2 inhibitors via a fluorescence intensity assay. [Related pubchem assays (depositor defined):AID1545, AID1574]
[19] = target: DNA dC->dU-editing enzyme APOBEC-3G (Homo sapiens, UniProt Q9HC16); assay: Dose Response confirmation of small molecule APOBEC3G DNA Deaminase Inhibitors via a fluorescence-based single-stranded DNA deaminase assay. [Related pubchem assays (depositor defined):AID493012, AID493028]; type: functional
[20] = target: T5, Mannose-6-phosphate isomerase (Homo sapiens, UniProt P34949); assay: phosphomannose isomerase inhibition – biochemical, fluorescence intensity, confirmation (AID 1535)
T5 sequence (P34949 whole entry): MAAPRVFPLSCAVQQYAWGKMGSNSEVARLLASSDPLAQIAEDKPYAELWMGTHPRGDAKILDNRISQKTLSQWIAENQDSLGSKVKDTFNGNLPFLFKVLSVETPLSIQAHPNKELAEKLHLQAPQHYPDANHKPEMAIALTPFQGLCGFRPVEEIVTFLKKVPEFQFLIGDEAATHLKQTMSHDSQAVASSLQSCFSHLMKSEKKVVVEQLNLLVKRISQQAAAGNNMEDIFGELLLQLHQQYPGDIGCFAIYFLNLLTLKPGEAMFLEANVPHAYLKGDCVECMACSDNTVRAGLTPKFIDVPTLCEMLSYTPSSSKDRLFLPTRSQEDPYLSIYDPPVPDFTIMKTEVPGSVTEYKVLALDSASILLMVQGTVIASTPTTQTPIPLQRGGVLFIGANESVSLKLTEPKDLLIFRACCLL

[21] = target: DNA dC->dU-editing enzyme APOBEC-3A (Homo sapiens, UniProt P31941); assay: A3A deaminase inhibition for selectivity – biochemical, dose response (AID 504722); type: functional
Sequence of DNA dC->dU-editing enzyme APOBEC-3A (P31941 whole entry): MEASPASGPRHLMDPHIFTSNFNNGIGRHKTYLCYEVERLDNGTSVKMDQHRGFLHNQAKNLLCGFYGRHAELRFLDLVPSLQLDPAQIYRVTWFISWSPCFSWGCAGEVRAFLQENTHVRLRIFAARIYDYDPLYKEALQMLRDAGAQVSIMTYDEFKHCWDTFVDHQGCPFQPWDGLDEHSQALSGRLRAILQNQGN

[22] = target: T5, Mannose-6-phosphate isomerase; assay: MPI enzyme activity inhibition – biochemical, fluorescence intensity, coupled assay, primary screen (AID 1209)

O=C1Nc2ccc(Br)cc2/C1=C1/SC(=S)N(NS(=O)(=O)c2ccccc2)C1=O
IC50 (Aminopeptidase N): < 1 µM (active)
IC50 (Genome polyprotein): 23.6 µM (active)
IC50 [1]: 3 µM (not active)
AC50 (Keap1/Nrf2): 12.2 µM (active)

COc1ccc(/C=N/Nc2cc(=O)n(C)c(=O)n2C)cc1OC
AC50 [2]: 7.21 µM (active)

Cc1ccc(N2C(=O)/C(=C/c3ccc(CN(CCC#N)S(C)(=O)=O)o3)C(=O)NC2=S)cc1
EC50 [3]: 80.5 µM (active)
EC50 [4]: 40.4 µM (active)
EC50 [5]: > 300 µM (not active)
EC50 [6]: 37.8 µM (active)
EC50 [7]: 36.2 µM (active)

Cc1ccc(S(=O)(=O)NCc2ccc(C(=O)N3CCN(c4ccc([N+](=O)[O-])cc4)CC3)cc2)cc1
IC50 [8]: 9.8 µM (active)
IC50 (HEK293 [9]): 16.2 µM (active)
IC50 (HEK293 [10]): 4.67 µM (active)
IC50 (HEK293 [11]): 7.59 µM (active)
AC50 [12]: 3.79 µM (active)
IC50 (HEK293 [13]): > 20 µM (inactive)
AC50 [14]: 39.8 µM (active)
EC50 [15]: 6.65 µM (active)
IC50 (Tumor necrosis factor): 11.4 µM (active)
AC50 [16]: 11.7 µM (active)
EC50 (HEK293 [17]): 4.26 µM (active)
IC50 (HEK293 [18]): > 20 µM (inactive)
AC50 (Paired box protein Pax-8): 6.91 µM (active)

Cc1ccc(C)n1-c1n[nH]c(=S)[nH]1
IC50 (Phosphomannomutase 2): > 100 µM (inactive)
IC50 [19]: 6.12 µM (active)
IC50 [20]: 41.8 µM (active)
IC50 [21]: > 100 µM (inactive)
IC50 [22]: 13.7 µM (active)
